Experimental findings from PMC2673211, “Nitric oxide activates ATP-sensitive potassium channels in mammalian sensory neurons: action by direct S-nitrosylation” (Molecular Pain, 2009) are described below.

What all share (format): biochemical
Experiment [1] has as its target T1, KATP channels in large DRG neurons (Rattus norvegicus, UniProt P70673+Q09429).
T1 construct: native KATP channels in large DRG neurons; endogenous in cells; host or cells: acutely dissociated large-diameter neurons from rat L4/L5 dorsal root ganglia (sham-operated or spinal nerve ligated animals)
Description: Excised inside-out (cell-free) patch-clamp recording of KATP channel activity. An excerpt: We harvested control (L4 and L5) or axotomized (L5) ganglia, from control (SS) or hyperalgesic rats (SNL) respectively, between the 17th and 28th postoperative days. We sacrificed animals by decapitation under deep isoflurane anesthesia, excised ganglia through a lumbar incision, and at the same time confirmed accuracy of initial surgery.
For patch-clamp recordings, we placed excised DRG into separate 35 mm Petri dishes containing cold, oxygenated, Hanks Balanced Salt Solution (Gibko, Invitrogen, Grand Islan, NY), and minced them with iris scissors. We dissociated ganglia enzymatically in a solution containing 0.25 ml 0.05% w:v liberase blendzyme 2 (Roche Diagnostics Corp., Indianapolis, IN) and 0.25 ml DMEM/F12 with glutaMAX (Dulbecco's modified Eagle's medium F12; Gibco, Invitrogen Corp., Carlsbad, CA) in an incubator at 37°C for 30 min. We then removed the supernatant after centrifugation and re-incubated cells at 37°C for another 30 min in 0.2 ml 0.0625% trypsin (Sigma, St. Louis, MO) and 0.0125% deoxyribonuclease 1 (150,000 U, Sigma, St. Louis, MO) in 0.25 ml DMEM. We then isolated cells by centrifugation (600 rpm for 5 min) after adding 0.25 ml trypsin inhibitor 0.1% w:v (Sigma St. Louis, MO), and re-suspended them in a culture medium consisting of 0.5 mM glutamine, 0.02 mg/ml gentamicin (Gibco, Invitrogen Corp., Carlsbad, CA), 100 ng/ml nerve growth factor 7S (Alomone Labs, Jerusalem, Israel), 2% (vol/vol) B-27 supplement (Gibco, Invitrogen Corp., Carlsbad, CA), and 98% (vol/vol) neural basal medium A (Gibco, Invitrogen Corp., Carlsbad, CA). Finally, we plated cells onto poly-l-lysine-coated 12-mm glass coverslips (Deutsche Spiegelglas; Carolina Biologic Supply, Burlington, NC), kept them in a humidified incubator at 37°C with 95% air and 5% CO2, and studied them within 3–8 h of dissociation.
We visualized plated neurons using an inverted Nikon Diaphot 300 microscope with Hoffman modulation optic system. We selected only large diameter neuronal somata (≥ 40 μm in diameter) because we have previously shown that only these develop KATP current alterations, as well as changes indicative of increased excitability after painful-like nerve injury by SNL [74]. Large neuronal somata, roughly correspond to large, myelinated Aβ fibers.
(§1) We recorded current passing through single channels in inside-out or cell-attached patch configurations. In cell-attached patches, both bath and pipette (extracellular) solutions were composed of the following: 140 mM KCl, 10 mM HEPES, 5.5 mM dextrose, and 1 mM EGTA. In inside-out patches, the bath (intracellular) solution contained 140 mM KCl, 1.2 mM MgCl2, 10 mM HEPES, 1.5 mM EGTA and 5.5 mM dextrose. The pipette (extracellular) solution was of the same composition as that used in cell-attached recordings. The pH of all solutions was adjusted to 7.4 with KOH. Osmolality was adjusted approximately to 300 mOsm/l by adding sucrose if necessary. We pulled patch micropipettes from borosilicate glass capillaries using a Flaming/Brown micropipette puller, model P-97 (Sutter, San Rafael, CA) and flame polished them with a microforge polisher (Narishige, Tokyo, Japan) prior to use. Their resistance ranged between 3 and 6 MΩ when filled with the internal solution, and placed into the recording solutions.
(§2) We recorded single channel currents at room temperature (20–25°C) using an Axon CNS Multiclamp 700B amplifier, digitized them using an analog-to-digital converter (Axon CNS DigiData 1440A; Axon Instruments, Foster, CA), and stored them into a PC. Sampling frequency of single-channel data was 5 KHz with a low-pass filter (1 KHz). We used pClamp version 10.2 software (Axon Instruments) for data acquisition and analysis. We applied a conventional 50% current amplitude threshold level criterion to determine open events. Channel open probability (Po) was determined from the ratios of the area under the peaks in the amplitude histograms fitted by a Gaussian distribution. […]
In general terms: In patch-clamp work, channel activity is measured electrically.

Experiment [2] has as its target T2, wild-type SUR1/Kir6.2 channels (Rattus norvegicus, UniProt P70673+Q09429).
T2 construct: A full-length Kir cDNA and a full-length SUR cDNA were subcloned into the mammalian expression vector; expressed in transfected cells; host or cells: COS7 cells (KATP channel-deficient), pcDNA3.1(-) vectors, GFP cDNA co-transfected as a separate reporter
Description: Inside-out patch recording of recombinant wild-type channels expressed in COS7 cells. How it is done:
(§3) KATP channel-deficient COS7 cells were plated at a density of 3 × 10^5/dish (35 mm in diameter) and cultured in Dulbecco's modified Eagle's medium supplemented with 10% fetal calf serum. Rat Kir6.2 (GenBank X97041) and rat SUR1 (GenBank X97279) cDNAs were used for expression study. A truncated form of Kir6.2 lacking the last 36 amino acids at the C-terminus was obtained by polymerase chain reaction amplification. Polymerase chain reaction products were cloned into the pCR3.1 vector by using the TA cloning system (Invitrogen Corp., Carlsbad, CA, USA) and then cloned into the pcDNA3.1 (-) vector (Invitrogen Corp.) for mammalian expression. Point mutation of cysteine at position 717 (C717), C806, C1378, C1446, and C1491 within SUR1 to serine (C717S, C806S, C1378S, C1446S, and C1491S) was performed by using the Site-Directed Mutagenesis system (Invitrogen Corp.). All cDNA products were sequenced by using the BigDye terminator cycle sequencing kit and an ABI PRISM 377 DNA sequencer (Applied Biosystems, Foster City, CA) to confirm the sequence. A full-length Kir cDNA and a full-length SUR cDNA were subcloned into the mammalian expression vector pcDNA3.1 (-). For electrophysiological recordings, either wild-type or mutated pcDNA3.1 (-) Kir6.2 alone (1 μg), or pcDNA3.1 (-) Kir6.2 (1 μg) plus pcDNA3.1 (-) SUR1 (3 μg) were transfected into COS7 cells with green fluorescent protein cDNA as a reporter gene by using lipofectamine and Opti-MEN 1 reagents (Life Technologies Inc., Rockville, MD) according to the manufacturer's instructions. After transfection, cells were cultured at 37°C with 95% air and 5% CO2 for 48–72 h before being subjected to electrophysiological recordings.
as §1
as §2, with “We applied a conventional 50% current amplitude threshold level criterion to determine open events.” left out, “distribution. We calculated channel activity as NPo (where N is the number of observed channels in the patch) from data samples of either 30 s (in inside-out recordings), or 60 s (in cell-attached recordings), in the steady state.” for “distribution.”

Experiment [3] deals with T3, SUR1-C717S/Kir6.2 channels (Rattus norvegicus, UniProt P70673+Q09429, C717S).
T3 construct: A full-length Kir cDNA and a full-length SUR cDNA were subcloned into the mammalian expression vector; expressed in transfected cells; host or cells: COS7 cells, pcDNA3.1(-) vectors, GFP cDNA co-transfected as a separate reporter
As to the kind of experiment: Inside-out patch recording of mutated channels expressed in COS7 cells. Particulars: n = 7. How it is done: as §3, §1
as §2, with “We applied a conventional 50% current amplitude threshold level criterion to determine open events.” left out, “distribution. We calculated channel activity as NPo (where N is the number of observed channels in the patch) from data samples of either 30 s (in inside-out recordings), or 60 s (in cell-attached recordings), in the steady state.” for “distribution.”

Read-outs that look alike come from different tables or passages of the source.

T2 sequence (Q09429 whole entry): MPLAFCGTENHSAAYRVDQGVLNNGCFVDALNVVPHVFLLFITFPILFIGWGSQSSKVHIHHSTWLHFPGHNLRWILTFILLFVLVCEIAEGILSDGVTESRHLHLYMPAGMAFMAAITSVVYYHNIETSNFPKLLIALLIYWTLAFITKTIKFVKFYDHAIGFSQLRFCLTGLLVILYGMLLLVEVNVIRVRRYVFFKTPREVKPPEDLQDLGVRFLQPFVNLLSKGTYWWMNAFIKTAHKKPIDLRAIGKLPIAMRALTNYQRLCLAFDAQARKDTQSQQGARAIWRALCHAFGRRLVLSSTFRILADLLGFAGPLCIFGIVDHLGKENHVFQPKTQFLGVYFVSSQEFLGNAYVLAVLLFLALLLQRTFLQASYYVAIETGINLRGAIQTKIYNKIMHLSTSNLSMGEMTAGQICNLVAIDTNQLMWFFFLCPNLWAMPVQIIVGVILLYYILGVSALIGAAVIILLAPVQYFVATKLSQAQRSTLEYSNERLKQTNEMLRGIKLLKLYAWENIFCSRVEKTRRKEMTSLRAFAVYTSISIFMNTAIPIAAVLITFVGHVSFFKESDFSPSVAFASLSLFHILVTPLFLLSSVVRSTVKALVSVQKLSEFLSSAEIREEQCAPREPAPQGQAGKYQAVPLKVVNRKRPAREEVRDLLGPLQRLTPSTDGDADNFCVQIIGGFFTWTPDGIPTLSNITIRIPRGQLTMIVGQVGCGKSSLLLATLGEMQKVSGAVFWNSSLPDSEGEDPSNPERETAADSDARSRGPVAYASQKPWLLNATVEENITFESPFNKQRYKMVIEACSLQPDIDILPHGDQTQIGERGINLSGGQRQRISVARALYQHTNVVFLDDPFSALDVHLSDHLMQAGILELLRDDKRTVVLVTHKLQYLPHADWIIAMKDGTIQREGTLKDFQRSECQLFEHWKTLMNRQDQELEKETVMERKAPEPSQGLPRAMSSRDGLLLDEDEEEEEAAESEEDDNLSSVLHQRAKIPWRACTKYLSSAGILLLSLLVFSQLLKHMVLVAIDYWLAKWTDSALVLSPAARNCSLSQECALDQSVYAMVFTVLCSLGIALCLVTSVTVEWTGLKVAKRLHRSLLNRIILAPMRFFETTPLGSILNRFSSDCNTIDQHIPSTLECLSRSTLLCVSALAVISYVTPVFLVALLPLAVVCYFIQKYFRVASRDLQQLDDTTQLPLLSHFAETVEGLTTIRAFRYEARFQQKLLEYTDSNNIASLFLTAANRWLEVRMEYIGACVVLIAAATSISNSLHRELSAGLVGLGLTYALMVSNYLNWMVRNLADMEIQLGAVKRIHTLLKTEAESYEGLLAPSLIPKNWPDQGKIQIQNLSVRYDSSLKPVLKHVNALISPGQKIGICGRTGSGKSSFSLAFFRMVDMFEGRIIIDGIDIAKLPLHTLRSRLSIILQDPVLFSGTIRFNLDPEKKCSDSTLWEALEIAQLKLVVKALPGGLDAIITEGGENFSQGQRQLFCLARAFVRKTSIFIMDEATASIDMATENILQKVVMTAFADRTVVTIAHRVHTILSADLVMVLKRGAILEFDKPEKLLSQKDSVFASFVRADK
T2 sequence (P70673 whole entry): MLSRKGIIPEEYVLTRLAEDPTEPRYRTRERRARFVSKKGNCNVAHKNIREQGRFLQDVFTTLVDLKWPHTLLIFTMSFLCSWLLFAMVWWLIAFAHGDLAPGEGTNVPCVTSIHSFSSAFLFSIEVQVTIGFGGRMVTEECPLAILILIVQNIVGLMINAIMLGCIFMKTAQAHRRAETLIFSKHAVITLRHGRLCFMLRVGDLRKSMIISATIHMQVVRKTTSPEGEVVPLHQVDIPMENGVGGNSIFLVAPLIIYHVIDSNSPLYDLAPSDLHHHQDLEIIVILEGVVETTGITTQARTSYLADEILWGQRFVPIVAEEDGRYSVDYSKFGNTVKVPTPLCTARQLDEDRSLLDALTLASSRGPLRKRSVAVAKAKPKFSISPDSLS
T1 sequence (Q09429 whole entry): as the sequence (Q09429 whole entry) above
T1 sequence (P70673 whole entry): as the sequence (P70673 whole entry) above
T3 sequence (Q09429 whole entry C717S): as the sequence (Q09429 whole entry) above, with C717S counted along it
T3 sequence (P70673 whole entry): as the sequence (P70673 whole entry) above

For `O[C@@H](CS)[C@@H](O)CS` (racemic) [DTT, di-thiothreitol], the “effect on SNAP-induced KATP channel activation” value in experiment [1] (SS neurons, DTT 5 mM after SNAP 100 μM, 1 mM [ATP]i, n = 7) is listed as “completely reversed”. The “direct effect on KATP channels in inside-out patches” value in experiment [1] (agent alone, vs. baseline/control) is recorded as “no direct effect”. In addition, the “effect on SNAP-activated currents” value in experiment [2] (DTT 5 mM after SNAP 1 mM) is on record as “almost completely suppressed”. Further, the “effect on SNAP-induced channel activation” value in experiment [3] (DTT 5 mM) is reported as “reversed”.

nitric oxide [NO]: the “potency of direct activation of cloned channels relative to native channels (less potent)” value in experiment [2] (cloned SUR1/Kir6.2 in COS7 cells vs. native channels in DRG neurons) is given as “approximately 3 fold”.

With `Nc1ncnc2c1ncn2[C@@H]1O[C@H](COP(=O)(O)OP(=O)(O)OP(=O)(O)O)[C@@H](O)[C@H]1O` [ATP], in experiment [1] (ATP 1 mM, SS and SNL, -60 mV), the “effect on channel activity in inside-out patches” value is “reversibly blocked”. Besides, the IC50 (commonly the concentration at which inhibition is half-maximal) in experiment [1] (SNL neurons, various intracellular ATP concentrations, n = 5, read-out: ATP sensitivity IC50) was determined as 18.1 µM; in experiment [1] (SS neurons, various intracellular ATP concentrations, n = 5, read-out: ATP sensitivity IC50), 14.7 µM; in experiment [1] (absence of SNAP, SS neurons, n = 7, read-out: IC50 value for [ATP]i) it was 12.8 µM; in experiment [1] (presence of SNAP, SS neurons, n = 7, read-out: IC50 value for [ATP]i), 54.4 µM; in experiment [2] (n = 7, read-out: ATP-sensitivity IC50), 11.6 µM; in experiment [3] (read-out: ATP-sensitivity IC50), 13.1 µM. Further, the “effect on recombinant channel currents” value in experiment [2] (1 mM [ATP]i, COS7 cells, inside-out) is “strongly inhibited”; in experiment [3] (1 mM [ATP]i) it was “strongly inhibited”.
